Measured values as given in ChEMBL document CHEMBL5126551, “Spiral molecules with antimalarial activities: A review” (Eur J Med Chem, 2022).
≈ marks a conversion by molar mass, not a printed value.

How the values were obtained:
Plasmodium falciparum [1] = experiment: Antimalarial activity against chloroquine resistant Plasmodium falciparum FcR3 assessed as inhibition of parasite growth measured after 48 hrs by classical radioactive microdilution method; format: functional, organism-based; details: FcR3, 48 h
Plasmodium falciparum [2] = experiment: Antimalarial activity against highly chloroquine resistant Plasmodium falciparum FcM29 assessed as inhibition of parasite growth measured after 48 hrs by classical radioactive microdilution method; format: functional, organism-based; details: FcM29, 48 h
Plasmodium falciparum [3] = experiment: Antimalarial activity against multidrug-resistant Plasmodium falciparum Dd2 infected in human red blood cells assessed as reduction in parasite growth incubated for 72 hrs by SYBR green I-based DNA quantification assay; format: functional, organism-based, Red blood cell; details: Dd2, Erythrocyte
Plasmodium falciparum [4] = experiment: Antimalarial activity against chloroquine-sensitive Plasmodium falciparum NF54 infected in human red blood cells assessed as reduction in parasite growth incubated for 72 hrs by SYBR green I-based DNA quantification assay; format: functional, organism-based, Red blood cell; details: NF54, Erythrocyte
Plasmodium falciparum [5] = experiment: Antimalarial activity against chloroquine-sensitive Plasmodium falciparum 3D7 infected in human red blood cells assessed as reduction in parasite growth incubated for 72 hrs by SYBR green I-based DNA quantification assay; format: functional, organism-based, Red blood cell; details: 3D7, Erythrocyte
Plasmodium falciparum [6] = experiment: Antimalarial activity against chloroquine-sensitive Plasmodium falciparum D6 assessed as inhibition of parasite growth; format: functional, organism-based
Plasmodium falciparum [7] = experiment: Antimalarial activity against chloroquine-resistant Plasmodium falciparum W2 assessed as inhibition of parasite growth; format: functional, organism-based
Plasmodium falciparum [8] = experiment: Antimalarial activity against chloroquine-sensitive Plasmodium falciparum 3D7 infected in human erythrocyte assessed as inhibition of parasite growth incubated for 66 hrs by [3H]-hypoxanthine incorporation assay based liquid scintillation spectrometric method; format: functional, organism-based; details: 3D7, Erythrocyte
Plasmodium falciparum [9] = experiment: Antimalarial activity against Plasmodium falciparum infected in human […] assessed as inhibition of parasite growth incubated for 30 hrs by [3H]-hypoxanthine incorporation assay based liquid scintillation spectrometric method; format: functional, organism-based
Plasmodium falciparum [10] = experiment: Antimalarial activity against chloroquine resistant Plasmodium falciparum FcB1 infected in human red blood cells assessed as inhibition of liberation and reinvasion steps of the erythrocytes by parasites measured after 72 hrs by titrated hypoxanthine incorporation assay; format: functional, organism-based, Red blood cell; details: FcB1, Erythrocyte
Plasmodium falciparum [11] = experiment: Antimalarial activity against chloroquine sensitive Plasmodium falciparum infected in human red blood cells assessed as inhibition of liberation and reinvasion steps of the erythrocytes by parasites measured after 72 hrs by titrated hypoxanthine incorporation assay; format: functional, organism-based, Red blood cell; details: Erythrocyte
[12] = Metabolic stability in Sprague-Dawley rat assessed as half-life of 97-63 metabolite by LC-MS/MS analysis; format: ADME
[13] = Apparent oral volume of distribution in Sprague-Dawley rat by LC-MS/MS analysis; format: ADME; details: in vivo
[14] = Metabolic stability in Sprague-Dawley rat assessed as Cmax of 97-63 metabolite by LC-MS/MS analysis; format: ADME
[15] = Metabolic stability in Sprague-Dawley rat assessed as AUC(0 to infinity) of 97-63 metabolite by LC-MS/MS analysis; format: ADME; parameters: time infinity
[16] = Metabolic stability in Sprague-Dawley rat assessed as AUC(0 to t) of 97-63 metabolite by LC-MS/MS analysis; format: ADME
[17] = Metabolic stability in Sprague-Dawley rat assessed as Tmax of 97-63 metabolite by LC-MS/MS analysis; format: ADME
Plasmodium falciparum [18] = experiment: Antimalarial activity against Plasmodium falciparum K1 assessed as inhibition of parasite growth; format: functional, organism-based
Plasmodium falciparum [19] = experiment: Antimalarial activity against chloroquine-resistant Plasmodium falciparum FCB-2 infected in human erythrocyte assessed as inhibition of parasite growth incubated for 48 hrs by [3H]-hypoxanthine incorporation assay based liquid scintillation counter method; format: functional, organism-based; details: FCB-2, Erythrocyte
Plasmodium falciparum [20] = experiment: Antimalarial activity against chloroquine, amodiaquine, quinine and artesunate-resistant Plasmodium falciparum NF-54 infected in human erythrocyte assessed as inhibition of parasite growth incubated for 48 hrs by [3H]-hypoxanthine incorporation assay based liquid scintillation counter method; format: functional, organism-based; details: NF-54, Erythrocyte
Plasmodium falciparum [21] = experiment: Antimalarial activity against Plasmodium falciparum K1 infected in human red blood cells assessed as inhibition of parasite growth incubated for 48 hrs by Giema staining based assay; format: functional, organism-based, Red blood cell; details: K1, Erythrocyte
Plasmodium falciparum [22] = experiment: Antimalarial activity against drug-resistant Plasmodium falciparum K1 assessed as inhibition of parasite growth; format: functional, organism-based
Plasmodium falciparum [23] = experiment: Antimalarial activity against drug-sensitive Plasmodium falciparum FCR3 assessed as inhibition of parasite growth; format: functional, organism-based
Plasmodium falciparum [24] = experiment: (§1) Antimalarial activity against chloroquine resistant Plasmodium falciparum K1 infected in human erythrocyte assessed as inhibition of parasite growth preincubated with compound for 24 hrs followed by hypoxanthine addition and measured after 24 hrs by [3H]-hypoxanthine incorporation based liquid scintillation counter; format: functional, organism-based
Plasmodium falciparum [25] = experiment: as §1, with “sensitive” for “resistant”, “3D7” for “K1”; format: functional, organism-based; details: 3D7, Erythrocyte
Plasmodium berghei = experiment: Antimalarial activity against Plasmodium berghei GFP ANKA infected in NMRI mouse assessed as reduction in blood parasitemia level measured on day 4 by FACS analysis; format: functional, organism-based

## CC1(C)COC2(CCC(NC3CCC(Nc4ccnc5cc(Cl)ccc45)CC3)CC2)OO1 (configuration not stated)
Plasmodium falciparum [1]
  IC50: 0.012 µM
Plasmodium falciparum [2]
  IC50: 0.01 µM

## COc1cc2c(cc1OC)C1(NCC2)C(=O)Nc2ccc(Cl)cc21 (configuration not stated)
Plasmodium falciparum [3]
  EC50: 1.73 µM
Plasmodium falciparum [4]
  EC50: 0.686 µM
Plasmodium falciparum [5]
  EC50: 1.86 µM

## CC(=O)O[C@H]1C[C@H]2[C@@H]([C@H](OC(C)=O)C[C@@H]3CC4(CC[C@@]32C)OOC2(CCC(C)CC2)OO4)[C@@H]2CC[C@H]([C@H](C)CCC(N)=O)[C@@]12C (some centres not stated)
Plasmodium falciparum [6]
  IC50: 0.00117 µM
Plasmodium falciparum [7]
  IC50: 0.00058 µM

## CCCCCCCCCCCCCC1OC2CC(O)C=CC23C1C(=O)N3Cc1ccccc1 (configuration not stated)
Plasmodium falciparum [8]
  IC50: 0.86 µM
Plasmodium falciparum [9]
  IC50: 5.55 µM

## Clc1ccc2c(NCCNC3CCC4(CC3)OOC3(c5ccccc5)CC(c5ccccc5)=CC3O4)ccnc2c1 (configuration not stated)
Plasmodium falciparum [10]
  IC50: 0.021 µM
Plasmodium falciparum [11]
  IC50: 0.008 µM

## C=C(c1ccc(OC(C)(C)COC(=O)CCC(=O)O)cc1)C1OCC2(OO1)C1CC3CC(C1)CC2C3 (configuration not stated)
[12]
  t1/2: 9.27 h
[13]
  Vd/F: 7.81 L/kg
[14]
  Cmax: 1.35 µg/mL
[15]
  AUC: 9.15 µg·h/mL
[16]
  AUCt: 9.1 µg·h/mL
[17]
  Tmax: 2.2 h

## COC(=O)C12C=C(OC)[C@@]3(Cl)C(C)(C=C(C4=C[C@H](O)[C@@H]5O[C@]5(CC=C(C)C)[C@@H]4O)[C@@]3(O)C13OC(=O)c1c(O)cc(C)cc1O3)C2 (some centres not stated)
Plasmodium falciparum [18]
  IC50: 5.73 µM

## C[C@@H]1CC[C@]2(C[C@H]3C[C@H]4[C@@H]5CCC67OC6C(=O)CC[C@]7(C)[C@H]5CC[C@]4(C)[C@H]3[C@@H]2C)OC1 (some centres not stated)
Plasmodium falciparum [19]
  IC50: 10.1 µM
Plasmodium falciparum [20]
  IC50: 8.5 µM

## O=C1CCCCC12Oc1c(Cl)cccc1C2=O (configuration not stated)
Plasmodium falciparum [21]
  IC50: 29.3 mg/L (≈ 117 µM)

## CNCCc1cc(Br)c(OCCCNC(=O)N(C)CCc2cc(Br)c(OCCCNC(=O)C3=NO[C@]4(CC(Br)=C(OC)C(Br)=CO4)[C@@H]3O)c(Br)c2)c(Br)c1
Plasmodium falciparum [22]
  IC50: 1.03 mg/L (≈ 0.904 µM)
Plasmodium falciparum [23]
  IC50: 0.77 mg/L (≈ 0.676 µM)

## CN1CCN(C2CCN(C(=O)CC3CCC4(CC3)OOC3(OO4)C4CC5CC(C4)CC3C5)CC2)CC1 (configuration not stated)
Plasmodium falciparum [24]
  IC50: 0.0011 µM
Plasmodium falciparum [25]
  IC50: 0.0008 µM
Plasmodium berghei
  EC50: 1.33 mg/kg
  EC90: 4.18 mg/kg
